Values joined by “and” are separate entries in the source; they are usually repeats but may differ in a detail not shown here. Identical values can stand only once.
Key:
IR-RPE-1 senescent cells = test: Time-lapse microscopy of IR-senescent RPE-1; type: cell-based, human; details: 100 μM, 72 h
Description: To obtain ionizing radiation (IR)-induced senescent cells, proliferating RPE-1 cells were exposed to a single dose of X-rays (20 Gy) using Pantak HF160 (Gulmay, Surrey, UK) X-ray instrument equipped with Pantak Seifert HF320 generator, MXR-161 X-ray tube (Comet AG, Flamatt, Switzerland), and an aluminum filter using current 1–10 mA. After irradiation, the cells were cultured for an additional 7 days until the development of the senescent phenotype ([Salovska et al., 2022]). To induce docetaxel-induced senescence (DIS), BJ cells were exposed to 5 nM docetaxel for 7 days, as described previously ([Sapega et al., 2018]). To prepare temozolomide (TMZ)-induced senescence, U87 cells were exposed to 100 μM TMZ for 14 days.
For auto-monitoring of cells, Incucyte SX1 Live-Cell Analysis System (Sartorius, Göttingen, Germany), located in an incubator maintained at 37°C under a 5% CO2 atmosphere and 95% humidity, was utilized. The images (1,408 × 1,040 pixels at 1.24 microns/pixel) were acquired using a 10× objective lens in phase contrast, red fluorescence (excitation: 585 ± 20 nm, emission: 635 [625, 705] nm, acquisition time: 100 ms) channels every 60 min during 72 h. The first image was acquired 30 min after adding compounds. The images were processed to measure cell confluence using Incucyte software (version 2022A). […]

mTOR kinase = target: T1, mTOR kinase (Homo sapiens, UniProt P42345); test: In vitro mTOR kinase enzyme assay (Transcreener ADP2 FI); type: biochemical
T1 construct: purchased Invitrogen
Description: The mTOR enzyme assay was used to determine the mTOR kinase activity of compound 3. Enzymatic reaction mixture was prepared as follows: mTOR enzyme (10 μg/mL, Invitrogen), ATP (10 μM), p70S6K peptide (10 μg/mL, SignalChem), and kinase buffer (50 mM HEPES, pH 7.5, 1 mM EGTA, 3 mM MnCl2, 10 mM MgCl2, 2 mM DTT, and 0.01% Tween-20). The reaction was performed in black half-area 96-wells at room temperature for 1 h, then stopped by adding ADP detection buffer (Transcreener ADP^2 FI Assay, BellBrook labs) and incubated at room temperature for 1 h. Compound concentration was 10, 20, 40, 80, and 100 μM. The final DMSO concentration was 1%. PHERAstar microplate reader was used for measuring the fluorescence intensity (excitation 575 nm, emission 620 nm).

[1] = system: pro-inflammatory cytokines of SASP; test: Secretion of pro-inflammatory cytokines (SASP) by senescent cells; type: cell-based, human; details: 50 μM, 24 h; for all detectable cytokines (IL-1α, IL-1β, IL-6, IL-8, IL-27, MCP-1, TNFα): TMZ-induced U87 senescent cells
Description: To determine the secretion of selected inflammatory cytokines into culture media, cell cultures were exposed to tested compounds (50 μM) for 24 h. Then the culture medium was removed, cells were washed three times with 1 mL PBS, and a fresh medium without FBS was added for 24 h. Detection of cytokines in conditioned culture media was done by Human Inflammation 11-Plex Panel: IFNγ, IL-1α, IL-1β, IL-6, IL-8, IL-10, IL-12p70, IL-27, IP-10, MCP-1, and TNFα (AimPlex Biosciences, Inc.) using a BD FACSVerseTM flow cytometer (BD Biosciences, Franklin Lakes, NJ, USA) according to manufacturer’s protocol. Data were analyzed using FlowJo 10 software (FlowJo LLC, Ashland, OR, USA).
Importantly, compound 3 decreased IL-1α, IL-8, and MCP-1 consistently in all tested senescence models. The effect of compound 3 on IL-6 was variable.

C57BL/6 (B6) male mice [2] = test: Spleen cell populations by flow cytometry in the tolerability study; type: in vivo; details: for CD4+ spleen cells / CD8+ spleen cells / Cd11b+/Gr-1+ spleen cells: percentage from the CD45+ cells
Description: During the experiments, mice behavior and possible apparent signs of toxicity were monitored daily. The body weights were determined on days 0, 4, and 8. On day 8, blood (25 μL) was withdrawn using a capillary pipette containing anticoagulant (heparin) from the retroorbital sinus into EDTA-containing tubes. Basic hematological parameters were measured using the Mindray BC-5300 Vet. Mice were then killed, autopsied, and abdominal organs (spleen, liver, and kidney) were removed for visual examination and imaging by a digital camera. Single-cell suspensions from the spleens were prepared by homogenization through a cell strainer (70 μm; BD Biosciences, San Jose, CA, USA). Erythrocytes were osmotically lysed using ammonium chloride-potassium lysis buffer, and the cell suspensions were washed three times in the RPMI-1640 medium and used for further analysis by flow cytometry for selected cell populations.
The cellularity of selected spleen cell populations was analyzed by flow cytometry. Cell suspensions were washed and preincubated with anti-CD16/CD32 (2.4G2) antibody to minimize non-specific binding at 4°C for 15 min following the washing step and incubation with labeled primary antibody at 4°C for 30 min. Relevant isotype controls of irrelevant specificity were used. FACS buffer (PBS, 1% FBS, 0.1% NaN3) was used for all washing steps and analysis. The following antibodies were used for FACS analyses: BV421 anti-mouse CD45 (30-F11), PE anti-mouse CD8α (53-6.7), BV711 anti-mouse CD4 (RM4-5), APC anti-mouse Ly-6g/Ly-6C (Gr-1) (RB6-8C5), BV711 anti-mouse CD11b (M1/70). FACS analysis was performed using a flow cytometer Symphony (BD Biosciences) and analyzed using FlowJo 10 software (FlowJo LLC, Ashland, OR, USA).

C57BL/6 (B6) male mice [3] = test: Histopathological analysis of spleen, kidney and liver; type: in vivo
Description: Spleen, kidney, and liver tissue samples from the control and treated animals were fixed in 4% formaldehyde and embedded into paraffin. The analysis and evaluation were performed at the Czech Centre for Phenogenomics, Institute of Molecular Genetics of the CAS, Vestec, using Leica ASP6025 automatic vacuum tissue processor for tissue processing, Leica EG1150 H + C embedding station for embedding, and Leica RM2255 rotary microtome for sectioning (2 μm sections). Standard haematoxylin and eosin (HE) descriptive histopathological staining was done using Leica ST5020 + CV5030 stainer and coverslipped.

[4] = all tested senescence models (DIS-BJ, IR-RPE-1, TMZ-U87)
[5] = 5 mg/kg p.o. days 0, 3, 5, spleen day 8
[6] = 25 mg/kg p.o. days 0, 3, 5, spleen day 8
[7] = 50 mg/kg p.o. days 0, 3, 5, spleen day 8
[8] = mice, all three doses (5, 25, 50 mg/kg p.o.)

SMILES	all detectable cytokines (IL-1α, IL-1β, IL-6, IL-8, IL-27, MCP-1, TNFα) [1]	CD45+ spleen cells (C57BL/6 (B6) male mice [2]; [5]) [%]	CD4+ spleen cells (C57BL/6 (B6) male mice [2]; 5 mg/kg p.o.) [%]	CD8+ spleen cells (C57BL/6 (B6) male mice [2]; 5 mg/kg p.o.) [%]	Cd11b+/Gr-1+ spleen cells (C57BL/6 (B6) male mice [2]; 5 mg/kg p.o.) [%]	CD45+ spleen cells (C57BL/6 (B6) male mice [2]; [6]) [%]	CD4+ spleen cells (C57BL/6 (B6) male mice [2]; 25 mg/kg p.o.) [%]	CD8+ spleen cells (C57BL/6 (B6) male mice [2]; 25 mg/kg p.o.) [%]	Cd11b+/Gr-1+ spleen cells (C57BL/6 (B6) male mice [2]; 25 mg/kg p.o.) [%]	CD45+ spleen cells (C57BL/6 (B6) male mice [2]; [7]) [%]	CD4+ spleen cells (C57BL/6 (B6) male mice [2]; 50 mg/kg p.o.) [%]	CD8+ spleen cells (C57BL/6 (B6) male mice [2]; 50 mg/kg p.o.) [%]	Cd11b+/Gr-1+ spleen cells (C57BL/6 (B6) male mice [2]; 50 mg/kg p.o.) [%]	histopathology, spleen (C57BL/6 (B6) male mice [3]; [8])	other results
Nc1ccc(C(=O)Nc2cccc(-c3c[nH]c4ncccc34)c2)cc1O [Compound 3, N-(3-(1H-pyrrolo[2,3-b]pyridin-3-yl)phenyl)-4-amino-3-hydroxybenzamide]	suppressed	94.3	19.0	11.4	0.7	95.9	15.9	9.6	1.0	97.2	16.0	9.8	0.8	varying degrees of extramedullary haematopoiesis	kind of effect on senescent cells (IR-RPE-1 senescent cells): rather senomorphic than senolytic effect; IC50 (mTOR kinase; ATP 10 μM, p70S6K peptide, 1 h): ~70 µM and 70 µM; inhibition of mTOR kinase activity (mTOR kinase; at 100 μM): complete inhibition; concentration from which mTOR kinase activity is inhibited (mTOR kinase; tested at 10, 20, 40, 80, 100 μM): 10 µM; IL-6 level in conditioned medium ([1]; DIS-BJ senescent cells): apparent decrease; IL-6 level in conditioned medium ([1]; TMZ-U87 senescent cells): apparent decrease; IL-1α level in conditioned medium [1, 4]: decreased; IL-8 level in conditioned medium [1, 4]: decreased; MCP-1 level in conditioned medium [1, 4]: decreased; histopathology, spleen (C57BL/6 (B6) male mice [3]; mice, 25 mg/kg p.o., HE, 100×): mild extramedullar hematopoiesis; histopathology, kidneys (C57BL/6 (B6) male mice [3]; mice, 25 mg/kg p.o., HE, 200×): narrowing of Bowman’s space (arrow), focal tubular atrophy; histopathology, kidneys (C57BL/6 (B6) male mice [3]; mice, 50 mg/kg p.o., HE, 200×): multifocal mild tubular damage; histopathology, liver (C57BL/6 (B6) male mice [3]; mice, 50 mg/kg p.o., HE, 400×): rare incipient centrilobular necrosis; histopathology, liver (C57BL/6 (B6) male mice [3]; mice, 5, 25, 50 mg/kg p.o., dose-dependent): minimal evidence of damage; histopathology, kidneys (C57BL/6 (B6) male mice [3]; mice, 5, 25, 50 mg/kg p.o., proportional to dose): most pronounced pathological changes
CC(C)n1nc(-c2cc3cc(O)ccc3[nH]2)c2c(N)ncnc21 [Torkinib, torkinib]	suppressed	92.0	15.5	10.4	0.9	96.7	15.4	9.8	0.6	84.0	16.6	10.2	1.3	minimal to moderate signs of extramedullary haematopoiesis	–

From article PMC9767416, “Discovery of small molecule mechanistic target of rapamycin inhibitors as anti-aging and anti-cancer therapeutics” (Frontiers in Aging Neuroscience, 2022)
